Experimental data taken from patent US20230286969A1, “AROMATIC SPIRO RING AMIDE DERIVATIVES FOR THE TREATMENT AND PROPHYLAXIS OF HEPATITIS B VIRUS INFECTION” (Hoffmann-La Roche Inc., priority 2020, published 2023).
Read-outs that look alike come from different tables or passages of the source.

What was measured:
Type in all cases: cell-based
[1] = test system: HBsAg; assay: PHH HBV natural infection assay, HBsAg (alphalisa)
Method: (§1) Detailed procedures regarding primary human hepatocyte (PHH) HBV natural infection assay are described as below. One tube of frozen PHH (10 million cells) is thawed in 37° C. water bath and then transferred to 20 mL of PHH thawing medium (Sigma, InVitroGRO HT Medium, Cat. S03319) with gently mixing. The cells were then centrifuged at […] for 5 min, the supernatant was discarded and the tube was refilled with 25 mL of PHH plating medium (Sigma, InVitroGRO CP Medium, Cat. S03317). The tube was shaken very gently to re-suspend all cells, and then 50 μl of cells were transferred to each well 384-well collagen I coated plate with appropriate liquid handling equipment, e.g. Integra VIAFLO384 or Agilent Bravo. The cells were then cultured for 24 hours in a cell incubator. For HBV infection, after PHH attachment on the culture plate, the plating medium was removed and replenished with PHH culture medium containing HBV virus. The PHH culture medium was prepared with Dulbecco's Modified Eagle Medium (DMEM)/F12 (1:1 in volume ratio) containing 10% fetal bovine serum (Gibco, Cat. 10099141), 5 ng/mL human epidermal growth factor (Gibco, Cat.PHG0311L), 20 ng/mL dexamethasone (Sigma, Cat.D4902-100 mg), 250 ng/mL human recombinant insulin (Gibco, Cat.41400045) and 100 U/mL penicillin. HBV virus at 200 genome equivalent (GE) per cell with 4% PEG8000 (Sigma, Cat.P1458) containing culture medium were added to the PHH culture medium for infection. The cells were then cultured for 24 hours in cell incubator. Then the cell culture supernatant was removed. The HBV-infected PHH were cultured with sandwich culture method with PHH culture medium containing 1% DMSO and 0.25 mg/mL matrix gel for 72 hours. The supernatant was then refreshed with PHH culture medium containing different concentrations of testing compounds for two times with 72-hour interval. At the end of treatment, the supernatant was collected for viral markers measurements, including HBsAg, HBeAg, HBV DNA and cytotoxicity. HBsAg and HBeAg were detected using alphalisa method using their specific antibodies. For HBV DNA detection, HBV DNA Quantitative Fluorescence Diagnostic Kit (Sansure Biotech Inc.) was used following the manufacture's protocol. Cytotoxicity was determined using Cell Counting Kit-8 (CCK8, Dojindo Molecular Technologies, Inc.).
(§2) The compounds of the present invention were tested for their capacity to inhibit HBsAg and HBeAg as described herein.

[2] = test system: HBeAg; assay: PHH HBV natural infection assay, HBeAg (alphalisa)
Method: as §1, §2

[3] = PHH natural infection assay, cytotoxicity (Cell Counting Kit-8); details: human, HBV-infected primary human hepatocytes, CCK8, end of treatment
Method: as §1

[4] = Hepatitis B virus, Hepatocyte, 72 h, read-out: HBsAg IC50, HBV-infected primary human hepatocytes, supernatant, compound medium refreshed two times with 72-hour interval
[5] = Hepatitis B virus, Hepatocyte, 72 h, read-out: HbeAg IC50, HBV-infected primary human hepatocytes, supernatant, compound medium refreshed two times with 72-hour interval
[6] = read-out: HBsAg IC50, HBV-infected primary human hepatocytes, supernatant, compound medium refreshed two times with 72-hour interval
[7] = read-out: HbeAg IC50, HBV-infected primary human hepatocytes, supernatant, compound medium refreshed two times with 72-hour interval

Structure (SMILES)	IC50 [1, 4] [nM]	IC50 [2, 5] [nM]	CC50 at 144 h [3] [µM]	IC50 [1, 6] [nM]	IC50 [2, 7] [nM]
CC(C)(C)[S+]([O-])c1ccc(C(=O)NC2CC3(C2)CC(c2nc4cc(Cl)ccc4o2)C3)o1 (stereo not drawn) [Example 38, 5-tert-butylsulfinyl-N-[6-(5-chloro-1,3-benzoxazol-2-yl)spiro[3.3]heptan-2-yl]furan-2-carboxamide]	526	317	96.3	–	–
O=C(NC1CC2(C1)CC(c1nc3cc(Cl)ccc3o1)C2)c1ccc(Br)o1 (stereo not drawn) [Example 3, 5-bromo-N-[6-(5-chloro-1,3-benzoxazol-2-yl)spiro[3.3]heptan-2-yl]furan-2-carboxamide]	9790	7640	96.2	–	–
N=S(=O)(Cc1ccc(C(=O)NC2CC3(C2)CC(c2nc4cc(Cl)ccc4o2)C3)o1)C1CC1 (stereo not drawn) [Example 60, N-[6-(5-chloro-1,3-benzoxazol-2-yl)spiro[3.3]heptan-2-yl]-5-[(cyclopropylsulfonimidoyl)methyl]furan-2-carboxamide]	1960	1910	> 100	–	–
NS(=O)(=O)Cc1ccc(C(=O)NC2CC3(C2)CC(c2nc4cc(Cl)ccc4o2)C3)o1 (stereo not drawn) [Example 33, N-[6-(5-chloro-1,3-benzoxazol-2-yl)spiro[3.3]heptan-2-yl]-5-(sulfamoylmethyl)furan-2-carboxamide]	1410	1390	> 100	–	–
NS(=O)(=O)c1ccc(C(=O)NC2CC3(C2)CC(c2nc4cc(Cl)ccc4o2)C3)o1 (single isomer, unassigned) [Example 29-a, N-[6-(5-chloro-1,3-benzoxazol-2-yl)spiro[3.3]heptan-2-yl]-5-sulfamoyl-furan-2-carboxamide]	–	–	> 100	5120	2280
O=C(NC1CC2(C1)CC(c1nc3cc(Cl)ccc3o1)C2)c1ccc(S(=O)(=O)C(F)(F)F)o1 (stereo not drawn) [Example 43, N-[6-(5-chloro-1,3-benzoxazol-2-yl)spiro[3.3]heptan-2-yl]-5-(trifluoromethylsulfonyl)furan-2-carboxamide]	1140	839	> 100	–	–
NC(=O)c1ccc(C(=O)NC2CC3(C2)CC(c2nc4cc(Cl)ccc4o2)C3)o1 (stereo not drawn) [Example 11, N2-[6-(5-Chloro-1,3-benzoxazol-2-yl)spiro[3.3]heptan-2-yl]furan-2,5-dicarboxamide]	5880	5220	> 10	–	–
N=S(=O)(CC1CC(F)(F)C1)c1ccc(C(=O)NC2CC3(C2)CC(c2nc4cc(Cl)ccc4o2)C3)o1 (stereo not drawn) [Example 57, N-[6-(5-chloro-1,3-benzoxazol-2-yl)spiro[3.3]heptan-2-yl]-5-[(3,3-difluorocyclobutyl)methylsulfonimidoyl]furan-2-carboxamide]	884	754	81.9	–	–
O=C(NC1CC2(C1)CC(c1nc3cc(Cl)cnc3o1)C2)c1ccc(S(=O)(=O)C2CC2)o1 (single isomer, unassigned) [Example 49-a, N-[6-(6-chlorooxazolo[5,4-b]pyridin-2-yl)spiro[3.3]heptan-2-yl]-5-cyclopropylsulfonyl-furan-2-carboxamide]	–	–	81.1	4170	4250
[H][C@]1(NC(=O)c2ccc(S(C)(=O)=O)o2)C[C@@]2(C1)C[C@]([H])(c1nc3cc(Cl)ccc3o1)C2 (single isomer, unassigned) [Example 15-a, (Sa)—N-[6-(5-chloro-1,3-benzoxazol-2-yl)spiro[3.3]heptan-2-yl]-5-methylsulfonyl-furan-2-carboxamide]	–	–	84	5190	3940
O=C(NC1CC2(C1)CC(c1nc3cc(Cl)ccc3o1)C2)c1ccc(S(=O)(=O)CC2CCC2)o1 (stereo not drawn) [Example 23, N-[6-(5-chloro-1,3-benzoxazol-2-yl)spiro[3.3]heptan-2-yl]-5-(cyclobutylmethylsulfonyl)furan-2-carboxamide]	321	883	> 100	–	–
O=C(NC1CC2(C1)CC(c1nc3cc(Cl)ccc3o1)C2)c1ccc(S(=O)(=O)NC(=O)C2CCOCC2)o1 (stereo not drawn) [Example 87, N-[[5-[[6-(5-chloro-1,3-benzoxazol-2-yl)spiro[3.3]heptan-2-yl]carbamoyl]-2-furyl]sulfonyl]tetrahydropyran-4-carboxamide]	1300	981	> 10	–	–
O=C(NC1CC2(C1)CC(c1nc3cc(Cl)ccc3o1)C2)c1ccc(S(=O)(=O)NC(=O)C2CS(=O)(=O)C2)o1 (stereo not drawn) [Example 83, N-[6-(5-chloro-1,3-benzoxazol-2-yl)spiro[3.3]heptan-2-yl]-5-[(1,1-dioxothietane-3-carbonyl)sulfamoyl]furan-2-carboxamide]	3300	1960	> 10	–	–
N#Cc1ccc(C(=O)NC2CC3(C2)CC(c2nc4cc(Cl)ccc4o2)C3)o1 (stereo not drawn) [Example 2, N-[6-(5-chloro-1,3-benzoxazol-2-yl)spiro[3.3]heptan-2-yl]-5-cyano-furan-2-carboxamide]	5860	4060	61.6	–	–
[H][C@]1(NC(=O)c2ccc([S@](=N)(=O)C3CC3)o2)C[C@]2(C1)C[C@]([H])(c1nc3cc(Cl)ccc3o1)C2 (stereo partly drawn) [Example 53-c, (Ra)—N-[6-(5-chloro-1,3-benzoxazol-2-yl)spiro[3.3]heptan-2-yl]-5-[(R)-cyclopropylsulfonimidoyl]furan-2-carboxamide]	650	621	91.9	–	–
N=S(=O)(CC1CC1)c1ccc(C(=O)NC2CC3(C2)CC(c2nc4cc(Cl)ccc4o2)C3)o1 (stereo not drawn) [Example 54, N-[6-(5-chloro-1,3-benzoxazol-2-yl)spiro[3.3]heptan-2-yl]-5-(cyclopropylmethylsulfonimidoyl)furan-2-carboxamide]	470	542	88.8	–	–
[H][C@]1(NC(=O)c2ccc(S(C)(=O)=O)o2)C[C@]2(C1)C[C@]([H])(c1nc3cc(Cl)ccc3o1)C2 (single isomer, unassigned) [Example 15-b, (Ra)—N-[6-(5-chloro-1,3-benzoxazol-2-yl)spiro[3.3]heptan-2-yl]-5-methylsulfonyl-furan-2-carboxamide]	–	–	35.8	896	694
C[S+]([O-])c1ccc(C(=O)NC2CC3(C2)CC(c2nc4cc(Cl)ccc4o2)C3)o1 (stereo not drawn) [Example 14, N-[6-(5-chloro-1,3-benzoxazol-2-yl)spiro[3.3]heptan-2-yl]-5-methylsulfinyl-furan-2-carboxamide]	1620	854	76.5	–	–
O=C(N[C@H]1CC2(C1)C[C@H](c1nc3cc(Cl)ccc3o1)C2)c1ccc(S(=O)(=O)NC(=O)C23CC(C2)C3)o1 (single isomer, unassigned) [Example 76, (Sa)-5-(bicyclo[1.1.1]pentane-1-carbonylsulfamoyl)-N-[6-(5-chloro-1,3-benzoxazol-2-yl)spiro[3.3]heptan-2-yl]furan-2-carboxamide, or (Ra)-5-(bicyclo[1.1.1]pentane-1-carbonylsulfamoyl)-N-[6-(5-chloro-1,3-benzoxazol-2-yl)spiro[3.3]heptan-2-yl]furan-2-carboxamide]	2840	1990	> 10	–	–
CS(=N)(=O)c1ccc(C(=O)NC2CC3(C2)CC(c2nc4cc(Cl)ccc4o2)C3)o1 (stereo not drawn) [Example 52, N-[6-(5-chloro-1,3-benzoxazol-2-yl)spiro[3.3]heptan-2-yl]-5-(methylsulfonimidoyl)furan-2-carboxamide]	1700	1200	72	–	–
CCS(=O)(=O)c1cc(C)c(C(=O)NC2CC3(C2)CC(c2nc4cc(Cl)ccc4o2)C3)o1 (stereo not drawn) [Example 37, N-[6-(5-chloro-1,3-benzoxazol-2-yl)spiro[3.3]heptan-2-yl]-5-ethylsulfonyl-3-methyl-furan-2-carboxamide]	9380	5720	> 100	–	–
